Where two headings read alike, the source gives them in different places. Where a SMILES comes first, the peptide text is derived from it. Bridges are numbered along the chain shown (N, C = ends).
Key:
[1] = system: Escherichia coli (ATCC 25922); design: method as in PMID 28669767; details: previously reported; cited from earlier work
[2] = system: Pseudomonas aeruginosa (ATCC 27853); design: method as in PMID 28669767; details: previously reported; cited from earlier work
[3] = system: Staphylococcus aureus (ATCC 29213); design: method as in PMID 28669767; details: previously reported; cited from earlier work
[4] = system: Candida albicans (ATCC 90028); design: method as in PMID 28669767; details: previously reported; cited from earlier work
[5] = system: Human Lymphoma Cell Line U-937 GTB; design: method as in PMID 21491023; details: previously reported; read-out: cytotoxicity, IC50, lymphoma U937; cited from earlier work
[6] = design: method as in PMID 28669767; details: previous liposome leakage studies; cited from earlier work
[7] = system: Escherichia coli (ATCC 25922); experiment: Microdilution MIC assay, E. coli; type: cell-based; details: for antimicrobial activity, MIC, Escherichia coli: lowest concentration inhibiting 100% growth, Tris buffer, triplicate
Source text: (§1) Cyclotides isolated from G. repens were subjected to a microdilution assay on 96-well plates to determine minimum inhibitory concentration (MIC values), according to a method devised to minimize the activity-inhibiting presence of rich growth media.[43] For these experiments, bacterial strains of E. coli, P. aeruginosa, and S. aureus and the fungal strain of C. albicans were used. The MIC was taken as the lowest concentration of a cyclotide where the visible growth of microbes was inhibited, i.e., 100% of cell death.
(§2) The dried cyclotides were subjected to MIC determination[43] against Staphylococcus aureus (ATCC 29213), Escherichia coli (ATCC 25922), Pseudomonas aeruginosa (ATCC 27853), and Candida albicans (ATCC 90028). The cyclotides (stock concentration of 65 μM) were dissolved in Tris buffer for the assay, and a concentration gradient of the cyclotides was screened against a microbial suspension mixed in a 1:1 ratio in each well (50 μL:50 μL). Microorganisms were grown in 3% tryptic soy broth (TSB) at 37 °C overnight, after centrifuging at 2000 rpm for 6–7 min, and bacterial pellets were washed twice and dissolved with Tris buffer. The absorbance was measured at 600 nm, and the solution was diluted to a concentration of 1 × 10^6 bacteria/mL. Dilution series were prepared using a serial dilution method with cyclotides and Tris buffer. In each plate, 50 μL of microbial suspension (approximately 50 000 cells/well) was added and incubated for 5 h. After incubation, 5 μL of 20% TSB was added to each well. Each plate was incubated based on the growth cycle of the microbe for 6, 9, 10, and 12 h at 37 °C. The minimum concentration that inhibited 100% growth was recorded as the MIC value. Triplicate assays were carried out for each sample.

[8] = system: Pseudomonas aeruginosa (ATCC 27853); experiment: Microdilution MIC assay, P. aeruginosa; type: cell-based; details: lowest concentration inhibiting 100% growth; Tris buffer, triplicate
Source text: as §1, §2

[9] = system: Staphylococcus aureus (ATCC 29213); experiment: Microdilution MIC assay, S. aureus; type: cell-based; details: lowest concentration inhibiting 100% growth; Tris buffer, triplicate
Source text: as §1, §2

[10] = system: Candida albicans (ATCC 90028); experiment: Microdilution MIC assay, C. albicans; type: cell-based; details: lowest concentration inhibiting 100% growth; Tris buffer, triplicate
Source text: as §1, §2

[11] = Liposome leakage (carboxyfluorescein release) membrane permeabilization assay; type: biochemical, E. coli; details: carboxyfluorescein release at 45 min, Tris buffer pH 7.4, current study
Protocol: Each marker represents the mean leakage in Tris buffer, pH 7.4, with standard deviations from three experiments done at individual peptide concentrations, i.e., with no cumulative additions.
Liposomes were manufactured and their permeabilization was assayed as described previously.[48] Briefly, by dissolving an E. coli polar lipid extract in chloroform and evaporating the solvent under agitation, with a nitrogen gas flow, and then storing in vacuum, dry films were formed on the walls of a glass flask. Lipid films were resuspended in an aqueous solution of 100 mM 5(6)-carboxyfluorescein in 10 mM Tris (set to pH 7.4 at 37 °C). Suspensions were subjected to repeated extrusion through a 100 nm polycarbonate membrane in order to reduce multilamellar structures and polydispersity. Untrapped carboxyfluorescein was removed by gel filtration. Membrane permeability was measured by monitoring carboxyfluorescein efflux from the liposomes to the external low-concentration environment, resulting in loss of self-quenching and an increased fluorescence signal. […] The EC50 values are calculated from a sigmoidal dose–response curve with a variable slope to the leakage percentage as a function of the peptide concentration (log 10).

[12] = system: Human Lymphoma Cell Line U-937 GTB; details: read-out: cytotoxicity, IC50, lymphoma U937; FMCA, 72 h incubation
Protocol: The cytotoxicity of the cyclotides was determined using the fluorometric microculture cytotoxicity assay, employing the U-937 a human lymphoma cell line. This assay is based on hydrolysis of the probe, fluorescein diacetate (FDA), by esterase in live cells containing an intact plasma membrane. The cyclotides were tested at a series of concentrations obtained by 2-fold dilutions.
Cytotoxicity activities of the pure cyclotides were evaluated using a fluorometric microculture cytotoxicity assay (FMCA),[57] which is based on the monitoring of fluorescence arising from fluorescein that is produced as a result of fluorescein diacetate (FDA) hydrolysis by cells with intact cell membranes. Human lymphoma cells (U937) suspended in cell-growth medium were dispensed into the microtiter plate containing pure cyclotides. Each well was seeded with 200 μL of cell suspension, containing approximately 20 000 cells, to give a total volume of 200 μL/well. […] After 40 min of incubation at 37 °C the fluorescence was measured at 485 nm excitation and 538 nm emission. The fluorescence in each well is proportional to the number of living cells, and cytotoxicity activity of a fraction is inversely proportional to fluorescence intensity. […] The IC50 values were calculated from a sigmoidal dose–response curve with a variable slope to the percentage viability as a function of the peptide concentration (log 10).

[13] = system: standard microbial strains (E. coli, P. aeruginosa, S. aureus, C. albicans); experiment: Microdilution MIC assay, whole panel of microorganisms; type: cell-based; details: highest tested concentration 32.5 μM
Source text: as §1
as §2, with “In each plate, 50 μL of microbial suspension (approximately 50 000 cells/well) was added and incubated for 5 h. After incubation, 5 μL of 20% TSB was added to each well. Each plate was incubated based on the growth cycle of the microbe for 6, 9, 10, and 12 h at 37 °C. The minimum concentration that inhibited 100% growth was recorded as the MIC value. Triplicate assays were carried out for each sample.” left out

[14] = previously; cited from earlier work

Compound	antimicrobial activity, MIC, Escherichia coli [1]	antimicrobial activity, MIC, Pseudomonas aeruginosa [2]	antimicrobial activity, MIC, Staphylococcus aureus [3]	antimicrobial activity, MIC, Candida albicans [4]	IC50 [5]	EC50 [6]	antimicrobial activity, MIC, Escherichia coli [7]	antimicrobial activity, MIC, Pseudomonas aeruginosa [8]	antimicrobial activity, MIC, Staphylococcus aureus [9]	antimicrobial activity, MIC, Candida albicans [10]	fold more active than cyO2 against E. coli ([7]; gere 1 versus cyO2 MIC)	EC50 [11]	IC50 [12]	minimum inhibitory concentration against panel of microorganisms [13]	concentration at which active in radial diffusion assays [14]
cycloviolacin O2 [cyO2, reference compound]	>10 µM	10 µM	>10 µM	>10 µM	0.26 to 1.8 µM	0.076 µM									
CC[C@H](C)[C@@H]1NC(=O)[C@H](Cc2ccccc2)NC(=O)[C@H](C(C)C)NC(=O)[C@@H]2CSSC[C@@H]3NC(=O)[C@H](CO)NC(=O)[C@@H]4CSSC[C@H](NC(=O)[C@@H]5CCCN5C(=O)[C@H](C(C)C)NC(=O)CNC(=O)[C@H](CC(N)=O)NC(=O)[C@H](CC(N)=O)NC(=O)[C@H](Cc5ccc(O)cc5)NC(=O)[C@H](CSSC[C@H](NC(=O)[C@@H]5CCCN5C1=O)C(=O)N[C@@H](Cc1ccccc1)C(=O)N[C@@H]([C@@H](C)O)C(=O)N[C@@H]([C@@H](C)O)C(=O)N[C@@H](C(C)C)C(=O)N[C@@H](C(C)C)C(=O)NCC(=O)N4)NC(=O)[C@H](C(C)C)NC(=O)[C@H](CCCCN)NC(=O)[C@H](CC(=O)O)NC(=O)[C@H](CCCCN)NC3=O)C(=O)NCC(=O)N[C@@H](CCC(=O)O)C(=O)N[C@@H](CO)C(=O)N2 [gere 4]							>10 µM	>10 µM	>10 µM	>10 µM					
CC[C@H](C)[C@@H]1NC(=O)[C@@H]2CSSC[C@@H]3NC(=O)[C@H](C(C)C)NC(=O)[C@H](CCCCN)NC(=O)[C@H](CC(=O)O)NC(=O)[C@H](CCCCN)NC(=O)[C@@H]4CSSC[C@H](NC(=O)[C@H](CO)NC(=O)[C@H](CCC(=O)O)NC(=O)CNC(=O)[C@H](CSSC[C@H](NC(=O)CNC(=O)[C@H]([C@@H](C)CC)NC(=O)[C@H](C(C)C)NC(=O)[C@H]([C@@H](C)O)NC(=O)[C@H]([C@@H](C)O)NC1=O)C(=O)N[C@@H](CO)C(=O)N4)NC(=O)[C@@H]1CCCN1C(=O)[C@H](C(C)C)NC(=O)CNC(=O)[C@H](CC(N)=O)NC(=O)[C@H]([C@@H](C)O)NC(=O)[C@H](Cc1ccc(O)cc1)NC3=O)C(=O)N[C@@H](C(C)C)C(=O)N[C@@H](Cc1ccccc1)C(=O)N[C@@H]([C@@H](C)CC)C(=O)N1CCC[C@H]1C(=O)N2 [gere 3]							>10 µM	>10 µM	>10 µM	>10 µM					
CC[C@H](C)[C@@H]1NC(=O)[C@H](C)NC(=O)[C@H](CO)NC(=O)[C@H](CO)NC(=O)[C@H]([C@@H](C)CC)NC(=O)[C@@H]2CSSC[C@@H]3NC(=O)[C@H](C(C)C)NC(=O)[C@H](CCCCN)NC(=O)[C@H](CC(N)=O)NC(=O)[C@H](CCCCN)NC(=O)[C@@H]4CSSC[C@H](NC(=O)[C@H](CO)NC(=O)[C@H](CCC(=O)O)NC(=O)CNC(=O)[C@H](CSSC[C@H](NC(=O)CNC1=O)C(=O)N[C@@H](CO)C(=O)N4)NC(=O)[C@@H]1CCCN1C(=O)[C@H]([C@@H](C)CC)NC(=O)CNC(=O)[C@H](CC(N)=O)NC(=O)[C@H](CCCCN)NC(=O)[C@H](Cc1ccc(O)cc1)NC3=O)C(=O)N[C@@H](C(C)C)C(=O)N[C@@H](Cc1c[nH]c3ccccc13)C(=O)N[C@@H]([C@@H](C)CC)C(=O)N1CCC[C@H]1C(=O)N2 [gere 1] (cyclo(AIGCSCKNKVCYKNGIPCGESCVWIPCISS); disulfide 4-18, 6-22, 11-27)							4.0 µM	7.9 µM	>10 µM	>10 µM	5 fold	0.07 µM	2 µM		
CC[C@H](C)[C@@H]1NC(=O)[C@@H]2CCCN2C(=O)[C@H](Cc2c[nH]c3ccccc23)NC(=O)[C@H](CO)NC(=O)[C@@H]2CSSC[C@@H]3NC(=O)[C@H]([C@@H](C)O)NC(=O)[C@H](CCC(=O)O)NC(=O)CNC(=O)[C@@H]4CSSC[C@H](NC(=O)CNC(=O)[C@H](CCC(N)=O)NC(=O)[C@H]([C@@H](C)O)NC(=O)[C@H](Cc5ccc(O)cc5)NC(=O)[C@H](CSSC[C@H](NC1=O)C(=O)N[C@@H](CCCCN)C(=O)N[C@@H](CCCNC(=N)N)C(=O)N[C@@H](CC(N)=O)C(=O)NCC(=O)N[C@@H](CC(C)C)C(=O)N1CCC[C@H]1C(=O)N[C@@H](C(C)C)C(=O)N4)NC(=O)[C@H]([C@@H](C)O)NC(=O)CNC(=O)[C@H](CC(C)C)NC(=O)[C@H]([C@@H](C)O)NC3=O)C(=O)N[C@@H]([C@@H](C)O)C(=O)N2 [kB7, kalata B7] (cyclo(CGETCTLGTCYTQGCTCSWPICKRNGLPV); disulfide 1-15, 5-17, 10-22)	>10 µM	1.25 µM	>10 µM	>10 µM	> 10 µM							0.094 µM	10.2 µM	≥ 32.5 µM	2 mM
CC[C@H](C)[C@@H]1NC(=O)CNC(=O)[C@H](CC(N)=O)NC(=O)[C@H]([C@@H](C)CC)NC(=O)[C@H](Cc2ccc(O)cc2)NC(=O)[C@@H]2CSSC[C@@H]3NC(=O)CNC(=O)[C@H](Cc4ccccc4)NC(=O)[C@H](Cc4ccc(O)cc4)NC(=O)[C@H](C)NC(=O)[C@@H]4CSSC[C@H](NC(=O)[C@H](CO)NC(=O)[C@H](CSSC[C@H](NC(=O)[C@H](C)NC1=O)C(=O)NCC(=O)N[C@@H](CCC(=O)O)C(=O)N[C@@H](CO)C(=O)N4)NC(=O)CNC(=O)[C@@H]1CCCN1C(=O)[C@H]([C@@H](C)CC)NC(=O)[C@H](Cc1c[nH]c4ccccc14)NC3=O)C(=O)N[C@@H](CCCCN)C(=O)N[C@@H](CC(=O)O)C(=O)N[C@@H](CCCCN)C(=O)N[C@@H](C(C)C)C(=O)N2 [gere 2]							>10 µM	>10 µM	>10 µM	>10 µM					
